This note sets out measurements from PMC11667158, “Flexible fluorine-thiol displacement stapled peptides with enhanced membrane penetration for the estrogen receptor/coactivator interaction” (The Journal of Biological Chemistry, 2024).

Series [1] is described as follows: Circular dichroism, percent α helicity. Format: physicochemical. The note with it: CD, 222 nm MRE, 50 μM peptide, room temperature. From the text: CD spectra were obtained using a J-815 CD spectrometer (Jasco) using the wavelength range of 190 to 260 nm. Spectra were collected in a 10 mm quartz cuvette and each spectrum represents the accumulation of three solvent-blank subtracted runs. Data were collected using the following system parameters: bandwidth of 1.00 nm, digital integration time of 2 s, pitch of 1.0 nm, and a scan speed of 50 nm/min. Data underwent minimal adaptive smoothing, and all the related spectra were taken at room temperature under inert nitrogen flow. Peptides were solubilized to 50 μM in either Milli-Q water, 45 mM sodium phosphate buffer (pH 7.4), 30 mM SDS (pH 7.4), or 50% (v/v) TFE. Percentage of α helicity was calculated based on the ellipticity value at 222 nm as done previously ([25], [63]), following the equation α helicity (%)=([ϴ]obs222-[ϴ]0)/([ϴ]max222-[ϴ]0) where [ϴ]max222 = (−44,000 + 250T) (1-x/n), [ϴ]0 = […], T = 20 °C, x = 3, n = number of residues ([25], [63]).
In general terms: Circular dichroism is the unequal absorption of left and right circularly polarised light.

The test system of a further series is MCF-7 ER + cells. Nature of the series: Soft agar colony formation assay (anchorage independent growth). Format: cell-based. The following applies: MCF-7, E2 1 nM, peptide 20 μM, 14 to 18 days. Here is the method: Figure 6 Soft agar colony formation assay. (A) soft agar average colony size and (B) average colony formation in MCF-7 ER + cells assessed in the presence of vehicle (EtOH), E2 (1 nM), and the indicated peptide treatments (WT, LL, or LD) at 20 μM. Graphed data represent the mean ± SD (n = 6). An ordinary one-way ANOVA was used to assess statistical significance where ‘∗’ indicates p < 0.05, ‘∗∗’ indicates p < 0.01, ‘∗∗∗’ indicates p < 0.001. ER, estrogen receptor.
Cells were seeded (1.5 × 10^4 cells/well) in 1X sterile low melt agarose (Life Technologies) containing 5% dextran-coated charcoal and the appropriate treatment. Soft agar assays were allowed to proceed for 14 to 18 days at 37 °C. Afterward, cell colonies were stained with 0.005% crystal violet in PBS. Colony number and colony size were analyzed with ImageJ (Wayne Rasband, National Institutes of Health, http://rsbweb.nih.gov/ij/). Data are presented as the average ± SD of six independent measurements.

In series [2] the target is SRC2-LD, FTDR-stapled, FITC-labelled. Nature of the series: fluorescence polarisation; saturation fluorescence anisotropy; ERα-LBD serially diluted to 0.4-7500 nM with 17β-estradiol at four equivalents to ERα; FITC-peptide 50 nM; 10 mM Hepes pH 7.4, 50 mM EDTA, 150 mM NaCl, 0.005% Tween-20; 96-well plates. (In general: Fluorescence polarisation rises when a labelled molecule tumbles more slowly, as on binding a larger partner.)

Series [3] has as its target SRC2-LL, FTDR-stapled, FITC-labelled. The series is described as above.

As for HKILHRLLQDS [SRC2-WT], the “α-helicity (%)” value turned out to be 57.9% in series [1] (30 mM SDS micellar solution, pH 7.4); 17% in series [1] (45 mM sodium phosphate buffer, pH 7.4); 84% in series [1] (50% (v/v) TFE in water, pH 7.4); 12.8% in series [1] (Water). The “downregulation of colony size compared to the vehicle” value in the series with MCF-7 ER + cells turned out to be 19%. Further, the average colony size in the series on MCF-7 ER + cells (n = 6) was 10,193 μm^2.
For “estrogen receptor α ligand-binding domain (domain or fragment)”, the fold increase in Kd against SRC2-RCM in series [2] amounted to 1.2 fold; in series [3], 1.5 fold.
